From patent US20250270209A1 (INTERLINE THERAPEUTICS, INC., priority 2022, published 2025)

Columns and labels:
[1] = target: T1, wild type LRRK2 overexpressed in recombinant HEK-293T cells (Homo sapiens, UniProt Q5S007); assay: pS935 LRRK2 Cell Assay (HTRF, phospho-LRRK2 Ser935); assay type: cell-based; conditions: LRRK2 Inhibition, Table 8, 2 hours compound incubation
T1 construct: host or cells: HEK293T (transient transfection with pCMV-LRRK2 WT plasmid)
Procedure, shortened: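 Phospho-Ser935 LRRK2 measured by two-antibody HTRF (Eu-cryptate donor, d2 acceptor; 665/615 nm ratio) after overnight detection at 23° C. Before lysis, transiently LRRK2-transfected HEK-293T cells were exposed 2 h at 37° C to a 9-point, 3-fold series from 10 μM, with DMSO at 0.2%.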

LRRK2 wild type enzyme = LRRK2 wild type enzyme (Homo sapiens, UniProt Q5S007); assay: Biochemical Assay: LRRK2 TR-FRET (LanthaScreen) kinase assay with LRRKtide substrate; conditions: LRRK2 Inhibition, Table 8
Sequence of LRRK2 wild type enzyme (Q5S007 whole entry): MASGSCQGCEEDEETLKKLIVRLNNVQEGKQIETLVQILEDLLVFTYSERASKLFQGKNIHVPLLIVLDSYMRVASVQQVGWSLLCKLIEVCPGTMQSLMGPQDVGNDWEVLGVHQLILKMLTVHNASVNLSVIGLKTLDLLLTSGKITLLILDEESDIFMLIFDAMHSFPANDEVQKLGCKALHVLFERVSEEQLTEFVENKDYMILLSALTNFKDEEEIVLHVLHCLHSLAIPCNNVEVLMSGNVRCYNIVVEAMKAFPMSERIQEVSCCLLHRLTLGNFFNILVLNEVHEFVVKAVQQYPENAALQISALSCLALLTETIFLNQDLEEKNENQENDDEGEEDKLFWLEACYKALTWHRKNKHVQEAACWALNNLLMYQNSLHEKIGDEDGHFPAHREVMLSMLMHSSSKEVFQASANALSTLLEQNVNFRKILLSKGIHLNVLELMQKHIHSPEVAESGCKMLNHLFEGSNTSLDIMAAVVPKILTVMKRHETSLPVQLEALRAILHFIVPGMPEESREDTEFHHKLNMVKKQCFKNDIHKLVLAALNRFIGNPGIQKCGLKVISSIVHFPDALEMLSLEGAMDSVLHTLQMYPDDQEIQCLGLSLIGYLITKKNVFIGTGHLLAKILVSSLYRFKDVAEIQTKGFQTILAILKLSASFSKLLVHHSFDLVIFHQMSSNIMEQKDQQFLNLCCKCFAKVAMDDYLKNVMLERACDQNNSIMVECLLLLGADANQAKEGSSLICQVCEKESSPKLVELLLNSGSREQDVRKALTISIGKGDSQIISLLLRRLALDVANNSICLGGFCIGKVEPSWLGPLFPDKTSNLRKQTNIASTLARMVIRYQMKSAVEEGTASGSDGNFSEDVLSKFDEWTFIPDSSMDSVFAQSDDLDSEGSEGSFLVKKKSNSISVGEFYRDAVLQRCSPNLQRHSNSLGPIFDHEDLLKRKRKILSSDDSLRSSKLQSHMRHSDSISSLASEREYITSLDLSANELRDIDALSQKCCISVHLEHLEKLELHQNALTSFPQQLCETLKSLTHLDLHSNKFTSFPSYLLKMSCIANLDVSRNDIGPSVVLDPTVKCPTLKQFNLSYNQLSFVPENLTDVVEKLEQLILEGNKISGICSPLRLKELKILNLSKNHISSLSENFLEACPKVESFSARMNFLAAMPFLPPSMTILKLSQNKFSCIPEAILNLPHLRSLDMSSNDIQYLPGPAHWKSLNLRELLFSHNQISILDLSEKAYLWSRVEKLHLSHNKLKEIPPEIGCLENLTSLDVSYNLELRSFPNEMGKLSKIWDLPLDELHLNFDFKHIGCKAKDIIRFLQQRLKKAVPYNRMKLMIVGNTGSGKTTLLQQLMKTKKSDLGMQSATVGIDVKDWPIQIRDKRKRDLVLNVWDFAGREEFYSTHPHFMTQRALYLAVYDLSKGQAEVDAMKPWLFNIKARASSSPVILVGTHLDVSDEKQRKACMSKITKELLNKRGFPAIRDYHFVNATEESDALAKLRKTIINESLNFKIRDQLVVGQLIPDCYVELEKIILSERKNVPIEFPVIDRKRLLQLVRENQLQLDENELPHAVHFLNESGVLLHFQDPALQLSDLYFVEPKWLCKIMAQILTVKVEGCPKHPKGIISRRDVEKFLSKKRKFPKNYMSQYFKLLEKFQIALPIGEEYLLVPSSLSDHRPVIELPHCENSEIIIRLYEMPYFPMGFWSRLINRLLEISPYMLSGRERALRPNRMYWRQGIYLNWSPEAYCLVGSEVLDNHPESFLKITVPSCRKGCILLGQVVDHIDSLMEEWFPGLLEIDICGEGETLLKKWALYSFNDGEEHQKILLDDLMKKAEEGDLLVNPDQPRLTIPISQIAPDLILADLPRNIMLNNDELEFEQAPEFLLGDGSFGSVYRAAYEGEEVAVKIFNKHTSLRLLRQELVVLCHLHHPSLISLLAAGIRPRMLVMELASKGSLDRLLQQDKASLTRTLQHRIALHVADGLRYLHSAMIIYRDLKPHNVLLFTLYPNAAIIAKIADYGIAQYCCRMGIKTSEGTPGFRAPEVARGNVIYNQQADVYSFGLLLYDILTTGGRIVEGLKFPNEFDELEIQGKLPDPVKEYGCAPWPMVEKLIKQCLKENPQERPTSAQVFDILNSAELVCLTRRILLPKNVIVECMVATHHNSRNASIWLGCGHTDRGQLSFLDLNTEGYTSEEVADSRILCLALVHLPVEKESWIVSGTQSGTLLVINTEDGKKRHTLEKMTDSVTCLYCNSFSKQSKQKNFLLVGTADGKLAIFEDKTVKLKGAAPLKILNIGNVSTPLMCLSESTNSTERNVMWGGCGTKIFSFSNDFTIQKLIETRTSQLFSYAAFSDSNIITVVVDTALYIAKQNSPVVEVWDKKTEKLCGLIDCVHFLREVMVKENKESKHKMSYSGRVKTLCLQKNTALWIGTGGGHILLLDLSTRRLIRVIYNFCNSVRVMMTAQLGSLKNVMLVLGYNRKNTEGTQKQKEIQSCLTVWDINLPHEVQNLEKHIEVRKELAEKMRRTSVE
Procedure, shortened: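 TR-FRET detection (Tb-labelled phospho-LRRKtide antibody, EDTA stop, 30 min) followed a 120 min, 23 °C reaction of 3 nM wild-type human LRRK2 with LRRKtide (400 nM) and ATP (25 μM) in Tris pH 8.0. Compounds: 11-point 3-fold series from 10 μM, 15 min enzyme preincubation.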

T1 sequence (Q5S007 whole entry): as above

SMILES	IC50 [1] [nM]	IC50 (LRRK2 wild type enzyme) [nM]
COc1cc(C)ncc1NC(=O)Cc1nc2cnc3ccc(C#N)cc3c2n1[C@@H]1CCO[C@H](C)C1 [Compound 226, N-(4-methoxy-6-methyl-3-pyridyl){3-[(2R,4R)-2-methyltetrahydro-2H-pyran-4-yl]-12-cyano-3,5,8-triazatricyclo[7.4.0.0^2,6]trideca-1,4,6,8,10,12-hexaen-4-yl}acetamide]	5.44	0.461
C[C@@H]1C[C@H](n2c(CC(=O)NCC(F)(F)CO)nc3cnc4ccc(C#N)cc4c32)CCO1 [Compound 233, N-(2,2-difluoro-3-hydroxypropyl){3-[(2R,4R)-2-methyltetrahydro-2H-pyran-4-yl]-12-cyano-3,5,8-triazatricyclo[7.4.0.0^2,6]trideca-1,4,6,8,10,12-hexaen-4-yl}acetamide]	247	0.837
C[C@@H]1C[C@H](n2c(CN3CCCC3=O)nc3cnc4ccc(C#N)cc4c32)CCO1 [Compound 80, 1-[(2R,4R)-2-methyloxan-4-yl]-2-[(2-oxopyrrolidin-1-yl)methyl]-1H-imidazo[4,5-c]quinoline-8-carbonitrile]	447	4.28
C[C@@H]1C[C@H](n2c(C3CC(=O)N([C@H]4CCOC4)C3)nc3cnc4ccc(C#N)cc4c32)CCO1 (stereo partly drawn) [Compound 45, 1-[(2R,4R)-2-methyloxan-4-yl]-2-{5-oxo-1-[(3S)-oxolan-3-yl]pyrrolidin-3-yl}-1H-imidazo[4,5-c]quinoline-8-carbonitrile]	550	3.24
C[C@@H]1C[C@H](n2c(CNC(=O)OC(C)(C)C)nc3cnc4ccc(C#N)cc4c32)CCO1 [Compound 33, tert-butyl N-({8-cyano-1-[(2R,4R)-2-methyloxan-4-yl]-1H-imidazo[4,5-c]quinolin-2-yl}methyl)carbamate]	396	5.24
C[C@@H]1C[C@H](n2c(CC(=O)Nc3cncnc3)nc3cnc4ccc(Cl)cc4c32)CCO1 [Compound 331, N-5-pyrimidinyl{3-[(2R,4R)-2-methyltetrahydro-2H-pyran-4-yl]-12-chloro-3,5,8-triazatricyclo[7.4.0.0^2,6]trideca-1(9),2(6),4,7,10,12-hexaen-4-yl}acetamide]	5.73	0.608
C[C@@H]1C[C@H](n2c(C3CC(=O)N(C)C3)nc3cnc4ccc(C#N)cc4c32)CCO1 (mixture of isomers) [Compound 53, 2-[(3RS)-1-methyl-5-oxopyrrolidin-3-yl]-1-[(2R,4R)-2-methyloxan-4-yl]-1H-imidazo[4,5-c]quinoline-8-carbonitrile]	666	3.16
C[C@@H]1C[C@H](n2c(CC(=O)Nc3cnccc3C#N)nc3cnc4ccc(C#N)cc4c32)CCO1 [Compound 271, N-(4-cyano-3-pyridyl){3-[(2R,4R)-2-methyltetrahydro-2H-pyran-4-yl]-12-cyano-3,5,8-triazatricyclo[7.4.0.0^2,6]trideca-1,4,6,8,10,12-hexaen-4-yl}acetamide]	8.43	0.643
Cc1ccncc1NC(=O)Cc1nc2cnc3ccc(C#N)cc3c2n1[C@@H]1CCO[C@H](C)C1 [Compound 292, N-(4-methyl-3-pyridyl){3-[(2R,4R)-2-methyltetrahydro-2H-pyran-4-yl]-12-cyano-3,5,8-triazatricyclo[7.4.0.0^2,6]trideca-1,4,6,8,10,12-hexaen-4-yl}acetamide]	8.23	0.473
C[C@@H]1C[C@H](n2c(CC(=O)NCc3cc(C4CC4)on3)nc3cnc4ccc(C#N)cc4c32)CCO1 [Compound 161, 2-{8-cyano-1-[(2R,4R)-2-methyloxan-4-yl]-1H-imidazo[4,5-c]quinolin-2-yl}-N-[(5-cyclopropyl-1,2-oxazol-3-yl)methyl]acetamide]	4.38	0.356
C[C@@H]1C[C@H](n2c(CC(=O)NCc3cnn(C)c3)nc3cnc4ccc(C#N)cc4c32)CCO1 [Compound 87, 2-{8-cyano-1-[(2R,4R)-2-methyloxan-4-yl]-1H-imidazo[4,5-c]quinolin-2-yl}-N-[(1-methyl-1H-pyrazol-4-yl)methyl]acetamide]	27.4	0.473
COc1ccc(NC(=O)Cc2nc3cnc4ccc(C#N)cc4c3n2[C@@H]2CCO[C@H](C)C2)cn1 [Compound 298, N-(6-methoxy-3-pyridyl){3-[(2R,4R)-2-methyltetrahydro-2H-pyran-4-yl]-12-cyano-3,5,8-triazatricyclo[7.4.0.0^2,6]trideca-1,4,6,8,10,12-hexaen-4-yl}acetamide]	5.52	0.346
C[C@@H]1C[C@H](n2c([C@H]3CCN(C(=O)OC(C)(C)C)C3)nc3cnc4ccc(C#N)cc4c32)CCO1 [Compound 26, tert-butyl (3S)-3-{8-cyano-1-[(2R,4R)-2-methyloxan-4-yl]-1H-imidazo[4,5-c]quinolin-2-yl}pyrrolidine-1-carboxylate]	452	5.26
C[C@@H]1C[C@H](n2c(CC(=O)N[C@H]3C[C@@H]3c3cccnc3)nc3cnc4ccc(C#N)cc4c32)CCO1 [Compound 347, N-[(1S,2R)-2-(3-pyridyl)cyclopropyl]{3-[(2R,4R)-2-methyltetrahydro-2H-pyran-4-yl]-12-cyano-3,5,8-triazatricyclo[7.4.0.0^2,6]trideca-1(9),2(6),4,7,10,12-hexaen-4-yl}acetamide]	144	1.28
COCCCNC(=O)Cc1nc2cnc3ccc(C#N)cc3c2n1[C@@H]1CCO[C@H](C)C1 [Compound 166, 2-{8-cyano-1-[(2R,4R)-2-methyloxan-4-yl]-1H-imidazo[4,5-c]quinolin-2-yl}-N-(3-methoxypropyl)acetamide]	12	0.364
COc1ncnc(C)c1NC(=O)Cc1nc2cnc3ccc(C#N)cc3c2n1[C@@H]1CCO[C@H](C)C1 [Compound 204, N-(4-methoxy-6-methyl-5-pyrimidinyl){3-[(2R,4R)-2-methyltetrahydro-2H-pyran-4-yl]-12-cyano-3,5,8-triazatricyclo[7.4.0.0^2,6]trideca-1,4,6,8,10,12-hexaen-4-yl}acetamide]	6.64	0.466
C[C@@H]1C[C@H](n2c(CC(=O)NCc3ccn(C)n3)nc3cnc4ccc(C#N)cc4c32)CCO1 [Compound 157, 2-{8-cyano-1-[(2R,4R)-2-methyloxan-4-yl]-1H-imidazo[4,5-c]quinolin-2-yl}-N-[(1-methyl-1H-pyrazol-3-yl)methyl]acetamide]	25.7	0.505
C[C@@H]1C[C@H](n2c(CNc3ncco3)nc3cnc4ccc(C#N)cc4c32)CCO1 [Compound 11, 1-[(2R,4R)-2-methyloxan-4-yl]-2-{[(1,3-oxazol-2-yl)amino]methyl}-1H-imidazo[4,5-c]quinoline-8-carbonitrile]	609	4.23
COc1nccc(F)c1NC(=O)Cc1nc2cnc3ccc(C#N)cc3c2n1[C@@H]1CCO[C@H](C)C1 [Compound 202, N-(4-fluoro-2-methoxy-3-pyridyl){3-[(2R,4R)-2-methyltetrahydro-2H-pyran-4-yl]-12-cyano-3,5,8-triazatricyclo[7.4.0.0^2,6]trideca-1,4,6,8,10,12-hexaen-4-yl}acetamide]	8.58	0.364
C[C@@H]1C[C@H](n2c(C3CCN(S(=O)(=O)C4CC4)CC3)nc3cnc4ccc(C#N)cc4c32)CCO1 [Compound 120, 2-[1-(cyclopropanesulfonyl)piperidin-4-yl]-1-[(2R,4R)-2-methyloxan-4-yl]-1H-imidazo[4,5-c]quinoline-8-carbonitrile]	268	1.7
C[C@@H]1C[C@H](n2c(CC(=O)Nc3ccn(C)c(=O)c3)nc3cnc4ccc(C#N)cc4c32)CCO1 [Compound 280, N-(1-methyl-2-oxo-1,2-dihydro-4-pyridyl){3-[(2R,4R)-2-methyltetrahydro-2H-pyran-4-yl]-12-cyano-3,5,8-triazatricyclo[7.4.0.0^2,6]trideca-1,4,6,8,10,12-hexaen-4-yl}acetamide]	495	0.373
Cc1nc(C)c(NC(=O)Cc2nc3cnc4ccc(C#N)cc4c3n2[C@@H]2CCO[C@H](C)C2)c(C)n1 [Compound 253, N-(2,4,6-trimethyl-5-pyrimidinyl){3-[(2R,4R)-2-methyltetrahydro-2H-pyran-4-yl]-12-cyano-3,5,8-triazatricyclo[7.4.0.0^2,6]trideca-1,4,6,8,10,12-hexaen-4-yl}acetamide]	25.8	0.538
C[C@@H]1C[C@H](n2c(CC(=O)NCc3ncccn3)nc3cnc4ccc(Cl)cc4c32)CCO1 [Compound 142, 2-{8-chloro-1-[(2R,4R)-2-methyloxan-4-yl]-1H-imidazo[4,5-c]quinolin-2-yl}-N-[(pyrimidin-2-yl)methyl]acetamide]	17.8	0.565
C[C@@H]1C[C@H](n2c(CC(=O)NC3(C)COC3)nc3cnc4ccc(Cl)cc4c32)CCO1 [Compound 323, N-(3-methyl-3-oxetanyl){3-[(2R,4R)-2-methyltetrahydro-2H-pyran-4-yl]-12-chloro-3,5,8-triazatricyclo[7.4.0.0^2,6]trideca-1(9),2(6),4,7,10,12-hexaen-4-yl}acetamide]	76.9	2.72
C[C@@H]1C[C@H](n2c(CC(=O)Nc3cn(C)c(C(F)(F)F)cc3=O)nc3cnc4ccc(C#N)cc4c32)CCO1 [Compound 232, N-[1-methyl-4-oxo-6-(trifluoromethyl)-1,4-dihydro-3-pyridyl]{3-[(2R,4R)-2-methyltetrahydro-2H-pyran-4-yl]-12-cyano-3,5,8-triazatricyclo[7.4.0.0^2,6]trideca-1,4,6,8,10,12-hexaen-4-yl}acetamide]	36.9	0.788
